According to patent publication US11352396B2, “Antimicrobial peptides and methods of using same” (Zoetis Services LLC, priority 2017, dated 2022):

What was measured:
[1] = test system: E. coli ATCC 25922; type: cell-based; conditions: E. coli 25922, Table 6
Protocol: (§1) Peptides according to SEQ ID NOs as listed in Table 1 were prepared by a commercial manufacturer (CS Bio, Menlo Park, Calif.) using solid phase synthesis. Antimicrobial activity was assessed by determining the Minimal Inhibitory Concentration (MIC) against S. aureus and E. coli. Briefly, Microbroth MICs were performed using CLSI methodology (VET01-S2). For S. aureus and E. coli ATCC strains, TSA with 5% lysed horse blood agar was used for overnight culturing at 37° C. ambient air. A 0.5 mM stock for each peptide was made with cell culture water, 0.01% acetic acid and serially diluted and spotted (10 μL) in a 96-well plate for in assay dose titration concentration of 50 μM to 0.05 μM. 0.5 McFarland Standard of each strain was diluted 1:250 in Mueller-Hinton Broth (MHB). 90 μL of culture suspension was then added upon drug in the 96-well plate for overnight incubation for 18-20 hours. The MIC was determined visually at the first well of no visible growth at the corresponding concentration.

[2] = test system: cRBC; type: cell-based, canine
Protocol: SEQ ID NO: 1 was selected for further research. Toxicity of SEQ ID NO: 1 to eukaryotic blood cells was compared to that of tachyplesin (SEQ ID NO: 13). A standard, well referenced red blood cell hemolysis assay was employed against multiple species to test the lysis potential of the peptides. Red blood cells (RBCs) were prepared and isolated by several centrifuge and wash steps to remove the plasma fraction. A dose titration (50 μM to 0.05 μM) of test peptides and control peptide melittin were spotted from 50 mM stocks in a 384 well plate. Prepared RBCs were incubated with peptide for one hour at 37° C. Percent hemolysis was measured by optical density at 405 nm and utilizing 1% TritonX100 as hundred percent effect (HPE) and phosphate buffer alone as zero percent effect (ZPE).

[3] = test system: MSSP (Methicillin-Susceptible Staphylococcus pseudintermedius); test: MIC against selected strains of MSSP; type: cell-based; set-up: MIC MSSP 49051 / MIC MSSP 81923 / MIC MSSP 84250 / Effect on MSSP 86000 / Effect on MSSP 72036 / Effect on MSSP 78032: unit not given beside the values; Effect on MSSP 71990 / Effect on MSSP 86001 / Effect on MSSP 72191 / Effect on MSSP 76986 / Effect on MSSP 77378 / Effect on MSSP 81923 / Effect on MSSP 84250 / Effect on MSSP 84658: unit: µM; conditions: for SP 49051: S. pseudintermedius 49051, Table 6; for Effect on MSSP 71990: strain 71990, Table 5; for Effect on MSSP 72036: strain 72036, Table 5; for Effect on MSSP 72191: strain 72191, Table 5; for Effect on MSSP 76986: strain 76986, Table 5; for Effect on MSSP 77378: strain 77378, Table 5; for Effect on MSSP 78032: strain 78032, Table 5; for Effect on MSSP 81923: strain 81923, Table 5; for Effect on MSSP 84250: strain 84250, Table 5; for Effect on MSSP 84658: strain 84658, Table 5; for Effect on MSSP 86000: strain 86000, Table 5; for Effect on MSSP 86001: strain 86001, Table 5
Protocol: as §1
(§2) Antimicrobial activity of the peptides listed in Table 2 against different strains of MSSP (Methicillin-Susceptible Staphylococcus pseudintermedius) and MRSP (Methicillin-Resistant Staphylococcus pseudintermedius) was further assessed. The results are in Tables 3 and 4, respectively.

[4] = test system: Canine-derived epithelial keratinocyte (CPEK) cells; type: cell-based
Protocol: Safety of the peptides listed in table 2 was determining by measuring cell viability. Canine-derived epithelial keratinocyte (CPEK) cells were propagated to determine cell viability in the presence of peptides. Cells were grown from a frozen stock in CnT-09-5 (with supplements) pre-warmed media in a T75 flask and incubated overnight at 37° C., 5% CO2. Cells were washed with phosphate buffer and replenished with pre-warmed CnT-05-9 media and repeated for several days until cells reached a density of 6.6×10^4 cells/mL. Cells were then transferred to a 384 well plate, allowed to settle and dosed with peptides and melittin control peptide (50 μM to 0.05 μM) and incubated overnight at 37° C., 5% CO2. 0.1% TritonX100 as (HPE) and phosphate buffer alone as (ZPE) were added to the plates to calculate percent effect once the assay was terminated with 10 μL CELLTITER-GLO® assay reagents for a luminescent readout.

[5] = test system: S. aureus ATCC 29213; type: cell-based; set-up: key to SA 29213: MIC in μM (lowest conc. with no visible growth); conditions: S. aureus 29213, Table 6
Protocol: as §1

[6] = test system: MRSP (Methicillin-Resistant Staphylococcus pseudintermedius); test: MIC against selected strains of MRSP; type: cell-based; set-up: key to MIC MRSP 72192 / MIC MRSP 76923 / MR 71994 / Mr 88493 / MR 72035 / MR 72192 / MR 76923 / MR 79882 / MR 80279 / MR 81926 / MR 86002 / MR 87665: MIC in μM (visual, first well with no growth); conditions: for MR 71994: MRSP strain 71994, Table 6; for MR 72035: MRSP strain 72035, Table 6; for MR 72192: MRSP strain 72192, Table 6; for MR 76923: MRSP strain 76923, Table 6; for MR 79882: MRSP strain 79882, Table 6; for MR 80279: MRSP strain 80279, Table 6; for MR 81926: MRSP strain 81926, Table 6; for MR 86002: MRSP strain 86002, Table 6; for MR 87665: MRSP strain 87665, Table 6; for Mr 88493: MRSP strain 88493, Table 6
Protocol: as §1, §2

Substance | EC 25922 [1] [µM] | cRBC (50 μM) [2] | SP 49051 [3] | Effect on MSSP 71990 [3] | Effect on MSSP 72036 [3] | Effect on MSSP 72191 [3] | Effect on MSSP 76986 [3] | Effect on MSSP 77378 [3] | Effect on MSSP 78032 [3] | Effect on MSSP 81923 [3] | Effect on MSSP 84250 [3] | Effect on MSSP 84658 [3] | Effect on MSSP 86000 [3] | Effect on MSSP 86001 [3] | CPEK (50 μM) [4] | SA 29213 [5] | MR 71994 [6] | MR 72035 [6] | MR 72192 [6] | MR 76923 [6] | further results
28 (PKWCFRVCYRGICYRRCR; Artificial Antimicrobial peptide) [compound 28] | 0.8 | 94.4 | 1.6 | 1.6 | 1.6 | 1.6 | 0.8 | 1.6 | 1.6 | 1.6 | 1.6 | 1.6 | 1.6 | 1.6 | 19.4 | 6.2 | 1.6 | 3.1 | 3.1 | 1.6 | MR 79882 [6]: 0.8; MR 80279 [6]: 1.6; MR 81926 [6]: 1.6; MR 86002 [6]: 1.6; MR 87665 [6]: 1.6; Mr 88493 [6]: 1.6
29 (PKWCFRVCYRGICYRRCRD; Artificial Antimicrobial peptide) [compound 29] | 1.6 | 68.2 | 1.6 | 1.6 | 1.6 | 1.6 | 1.6 | 0.8 | 0.8 | 0.8 | 0.8 | 1.6 | 1.6 | 1.6 | 17.5 | 3.1 | 1.6 | 1.6 | 0.8 | 1.6 | MR 79882 [6]: 0.8; MR 80279 [6]: 0.8; MR 81926 [6]: 0.8; MR 86002 [6]: 1.6; MR 87665 [6]: 1.6; Mr 88493 [6]: 1.6
30 (PWCFRVCYRGICYRRCR; Artificial Antimicrobial peptide) [compound 30] | 1.6 | 63.5 | 1.6 | 0.8 | 0.8 | 1.6 | 0.8 | 0.8 | 0.8 | 0.8 | 0.8 | 1.6 | 1.6 | 1.6 | 17.0 | 3.1 | 1.6 | 0.8 | 0.8 | 0.8 | MR 79882 [6]: 0.8; MR 80279 [6]: 0.8; MR 81926 [6]: 1.6; MR 86002 [6]: 1.6; MR 87665 [6]: 1.6; Mr 88493 [6]: 1.6
31 (PWCFRVCYRGICYRRCRD; Artificial Antimicrobial peptide) [compound 31] | 1.6 | 43.5 | 1.6 | 1.6 | 1.6 | 1.6 | 1.6 | 1.6 | 1.6 | 1.6 | 1.6 | 1.6 | 1.6 | 1.6 | 11.0 | 3.1 | 1.6 | 1.6 | 1.6 | 1.6 | MR 79882 [6]: 1.6; MR 80279 [6]: 1.6; MR 81926 [6]: 1.6; MR 86002 [6]: 1.6; MR 87665 [6]: 1.6; Mr 88493 [6]: 1.6
97 (KRCFRVCYRGICYRRCRD; Artificial Antimicrobial peptide) [compound 97] | 3.1 | 31.2 | 3.1 | 3.1 | 3.1 | 3.1 | 1.6 | 1.6 | 3.1 | 3.1 | 3.1 | 3.1 | 1.6 | 1.6 | 12.9 | 6.2 | 1.6 | 3.1 | 3.1 | 1.6 | MR 79882 [6]: 1.6; MR 80279 [6]: 3.1; MR 81926 [6]: 1.6; MR 86002 [6]: 3.1; MR 87665 [6]: 3.1; Mr 88493 [6]: 3.1
98 (KWCVRVCYRGICYRRCRD; Artificial Antimicrobial peptide) [compound 98] | 1.6 | 35.0 | 1.6 | 1.6 | 1.6 | 1.6 | 1.6 | 1.6 | 1.6 | 1.6 | 1.6 | 1.6 | 1.6 | 1.6 | 9.3 | 3.1 | 1.6 | 3.1 | 1.6 | 1.6 | MR 79882 [6]: 0.8; MR 80279 [6]: 1.6; MR 81926 [6]: 1.6; MR 86002 [6]: 1.6; MR 87665 [6]: 1.6; Mr 88493 [6]: 1.6
